Data taken from PubChem BioAssay (NCI).
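Exposure lasted 48 hours, with cells grown in 96-well plates and compounds tested at five concentrations. TGI marks complete inhibition of growth.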

What was measured:
Assay in all cases: NCI anticancer screen, dose series, 48 h
[1] = tested on: 786-0 renal
[2] = tested on: A498 renal
[3] = tested on: A549 NSCLC
[4] = tested on: ACHN renal
[5] = tested on: CAKI-1 renal
[6] = tested on: CCRF-CEM leukemia
[7] = tested on: COLO 205 colon
[8] = tested on: DU-145 prostate
[9] = tested on: EKVX NSCLC
[10] = tested on: HCC-2998 colon
[11] = tested on: HCT-116 colon
[12] = tested on: HCT-15 colon
[13] = tested on: HL-60(TB) leukemia
[14] = tested on: HOP-62 NSCLC
[15] = tested on: HS 578T breast
[16] = tested on: HT29 colon
[17] = tested on: IGROV1 ovarian
[18] = tested on: K-562 leukemia
[19] = tested on: KM12 colon
[20] = tested on: LOX IMVI melanoma
[21] = tested on: M14 melanoma
[22] = tested on: MALME-3M melanoma
[23] = tested on: MCF7 breast
[24] = tested on: MDA-MB-231 breast
[25] = tested on: MDA-MB-435
[26] = tested on: MDA-N
[27] = tested on: MOLT-4 leukemia
[28] = tested on: NCI-H226 lung
[29] = tested on: NCI-H23 lung
[30] = tested on: NCI-H460 lung
[31] = tested on: NCI-H522 lung
[32] = tested on: NCI/ADR-RES ovarian
[33] = tested on: OVCAR-3 ovarian
[34] = tested on: OVCAR-4 ovarian
[35] = tested on: OVCAR-5 ovarian
[36] = tested on: OVCAR-8 ovarian
[37] = tested on: PC-3 prostate
[38] = tested on: RPMI-8226 leukemia
[39] = tested on: RXF 393 renal
[40] = tested on: SF-268 CNS
[41] = tested on: SF-295 CNS
[42] = tested on: SK-MEL-2 melanoma
[43] = tested on: SK-MEL-28 melanoma
[44] = tested on: SK-MEL-5 melanoma
[45] = tested on: SK-OV-3 ovarian
[46] = tested on: SN12C renal
[47] = tested on: SNB-19 CNS
[48] = tested on: SNB-75 CNS
[49] = tested on: SR leukemia
[50] = tested on: SW-620 colon
[51] = tested on: T-47D breast
[52] = tested on: TK-10 renal
[53] = tested on: U251 CNS
[54] = tested on: UACC-257 melanoma
[55] = tested on: UACC-62 melanoma
[56] = tested on: UO-31 renal
[57] = tested on: HOP-92 NSCLC
[58] = tested on: SF-539 CNS

In the case of `CN(C)/C=C1\CCc2ccc([N+](=O)[O-])cc2C1=O`, the TGI [1] is reported as greater than 100 µM, the TGI [2] is reported as greater than 100 µM and the TGI [3] is reported as greater than 100 µM. It also gave a TGI [4] greater than 100 µM, a TGI [5] greater than 100 µM and a TGI [6] of 52.4 µM. For the same molecule, the TGI [7] was 43.5 µM, the TGI [8] was greater than 100 µM and the TGI [9] was greater than 100 µM. For the same molecule, the TGI [10] was greater than 100 µM, the TGI [11] was 36 µM and the TGI [12] was greater than 100 µM. It also gave a TGI [13] of 66.6 µM, a TGI [14] greater than 100 µM and a TGI [15] greater than 100 µM. It also gave a TGI [16] of 53.7 µM, a TGI [17] greater than 100 µM and a TGI [18] of 56.8 µM. It also gave a TGI [19] greater than 100 µM, a TGI [20] of 42.6 µM and a TGI [21] greater than 100 µM. The TGI [22] was greater than 100 µM, the TGI [23] was 48 µM and the TGI [24] was 43.8 µM. It also gave a TGI [25] of 34.8 µM, a TGI [26] of 38.1 µM and a TGI [27] of 51 µM. The TGI [28] was greater than 100 µM, the TGI [29] was greater than 100 µM and the TGI [30] was greater than 100 µM. For the same molecule, the TGI [31] was greater than 100 µM, the TGI [32] was greater than 100 µM and the TGI [33] was 41.2 µM. The TGI [34] was 34.2 µM, the TGI [35] was greater than 100 µM and the TGI [36] was greater than 100 µM. It also gave a TGI [37] greater than 100 µM, a TGI [38] of 62.2 µM and a TGI [39] greater than 100 µM. It also gave a TGI [40] greater than 100 µM, a TGI [41] greater than 100 µM and a TGI [42] greater than 100 µM. The TGI [43] was greater than 100 µM, the TGI [44] was greater than 100 µM and the TGI [45] was greater than 100 µM. It also gave a TGI [46] of 40.4 µM, a TGI [47] greater than 100 µM and a TGI [48] greater than 100 µM. It also gave a TGI [49] of 74.2 µM, a TGI [50] of 97.1 µM and a TGI [51] of 89.6 µM. For the same molecule, the TGI [52] was greater than 100 µM, the TGI [53] was greater than 100 µM and the TGI [54] was 38.2 µM. It also gave a TGI [55] of 76.4 µM and a TGI [56] greater than 100 µM.
For `OC1c2ccccc2CCC1C(O)(C(F)(F)F)C(F)(F)F` (stereo not drawn), the TGI [1] was greater than 100 µM, the TGI [2] was greater than 100 µM and the TGI [3] was greater than 100 µM. For the same molecule, the TGI [4] was greater than 100 µM, the TGI [5] was greater than 100 µM and the TGI [6] was greater than 100 µM. For the same molecule, the TGI [7] was greater than 100 µM, the TGI [8] was greater than 100 µM and the TGI [9] was greater than 100 µM. It also gave a TGI [10] greater than 100 µM, a TGI [11] greater than 100 µM and a TGI [12] greater than 100 µM. For the same molecule, the TGI [13] was greater than 100 µM, the TGI [14] was greater than 100 µM and the TGI [57] was greater than 100 µM. The TGI [15] was greater than 100 µM, the TGI [16] was greater than 100 µM and the TGI [17] was greater than 100 µM. The TGI [18] was greater than 100 µM, the TGI [19] was greater than 100 µM and the TGI [20] was greater than 100 µM. The TGI [21] was greater than 100 µM, the TGI [22] was greater than 100 µM and the TGI [23] was greater than 100 µM. The TGI [24] was greater than 100 µM, the TGI [25] was greater than 100 µM and the TGI [26] was greater than 100 µM. It also gave a TGI [27] greater than 100 µM, a TGI [28] greater than 100 µM and a TGI [29] greater than 100 µM. It also gave a TGI [30] greater than 100 µM, a TGI [31] greater than 100 µM and a TGI [32] greater than 100 µM. It also gave a TGI [33] greater than 100 µM, a TGI [34] greater than 100 µM and a TGI [35] greater than 100 µM. The TGI [36] was greater than 100 µM, the TGI [37] was greater than 100 µM and the TGI [38] was greater than 100 µM. It also gave a TGI [39] greater than 100 µM, a TGI [40] greater than 100 µM and a TGI [41] greater than 100 µM. The TGI [58] was greater than 100 µM, the TGI [42] was greater than 100 µM and the TGI [43] was greater than 100 µM. For the same molecule, the TGI [44] was greater than 100 µM, the TGI [45] was greater than 100 µM and the TGI [46] was greater than 100 µM. It also gave a TGI [47] greater than 100 µM, a TGI [48] greater than 100 µM and a TGI [49] greater than 100 µM. The TGI [50] was greater than 100 µM, the TGI [51] was greater than 100 µM and the TGI [52] was greater than 100 µM. The TGI [53] was greater than 100 µM, the TGI [55] was greater than 100 µM and the TGI [56] was greater than 100 µM.
